# Assay results taken from PubChem BioAssay (NCI).
#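 In this assay, cells in 96-well plates receive the compound at five concentrations for 48 hours. Endpoints are linearly interpolated between the surrounding concentrations. At the GI50, growth is halved. TGI: concentration producing complete growth inhibition.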
# Experiments:
# Assay in all cases: NCI tumour cell line growth inhibition, 48 h
# OVCAR-3 ovarian = tested on: OVCAR-3 ovarian
# SNB-19 CNS = tested on: SNB-19 CNS
# ACHN renal = tested on: ACHN renal
# HCC-2998 colon = tested on: HCC-2998 colon
# MALME-3M melanoma = tested on: MALME-3M melanoma
# HCT-116 colon = tested on: HCT-116 colon
# TK-10 renal = tested on: TK-10 renal
# IGROV1 ovarian = tested on: IGROV1 ovarian
# K-562 leukemia = tested on: K-562 leukemia
# PC-3 prostate = tested on: PC-3 prostate
SMILES,TGI (OVCAR-3 ovarian) [µM],TGI (SNB-19 CNS) [µM],TGI (ACHN renal) [µM],TGI (HCC-2998 colon) [µM],TGI (MALME-3M melanoma) [µM],TGI (HCT-116 colon) [µM],TGI (TK-10 renal) [µM],TGI (IGROV1 ovarian) [µM],TGI (K-562 leukemia) [µM],TGI (PC-3 prostate) [µM],GI50 (OVCAR-3 ovarian) [µM],GI50 (SNB-19 CNS) [µM],GI50 (ACHN renal) [µM],GI50 (HCC-2998 colon) [µM],GI50 (PC-3 prostate) [µM],GI50 (HCT-116 colon) [µM],GI50 (TK-10 renal) [µM],GI50 (IGROV1 ovarian) [µM],GI50 (K-562 leukemia) [µM],GI50 (MALME-3M melanoma) [µM]
COC(CN1C=C(Sc2ccccc2)CC1)OC,63.6,> 100,> 100,> 100,> 100,> 100,> 100,> 100,53.7,,,,,,,,,,,
CC1(C)CCC[C@]2(C)[C@@H](C=O)C(C=O)=CC[C@@H]12,28,77.4,30.6,32.7,32,83.4,74,44.4,,> 100,,,,,,,,,,
C/C=C(\C)c1cc(O)c(C)c2c1Oc1cc(O)c(Cl)c(C)c1C(=O)O2,,31.6,54.6,26.5,,,30.4,,,,,,,,,,,,,
c1ccc(P(=Nc2ccccc2N=P(c2ccccc2)(c2ccccc2)c2ccccc2)(c2ccccc2)c2ccccc2)cc1,0.783,16.9,10.2,12.8,,9.64,,22.8,11.2,,,,,,,,,,,
COc1ccc(C(Cl)=C(c2ccc(OCCN(C)C)cc2)c2ccc(OCCN(C)C)cc2)cc1,5.02,7.43,4.72,7.35,3.35,2.68,31.1,13.3,3.69,,,,,,,,,,,
CN(C)c1ccc(/C=C2\C=Cc3ccccc32)cc1,> 100,> 100,> 100,> 100,> 100,> 100,> 100,> 100,> 100,,,,,,,,,,,
Cc1ccc(S(=O)OC2C3CC4CC(C3)CC2C4)cc1 (centres undefined),> 100,> 100,> 100,> 100,> 100,> 100,> 100,> 100,> 100,,,,,,,,,,,
Cc1cc2c(c(C(=O)O)c1C)-c1cccc(F)c1C2=O,> 100,> 100,> 100,> 100,> 100,,> 100,> 100,> 100,,,,,,,,,,,
Cn1c2ccccc2n2c(=O)c3c(c(C#N)c12)CCCC3,> 100,> 100,> 100,> 100,> 100,> 100,> 100,> 100,> 100,,,,,,,,,,,
C[C@@H]1O[C@@H](OC[C@H]2O[C@@H](OCCc3ccc(O)c(O)c3)[C@H](O)[C@@H](O)[C@@H]2OC(=O)/C=C/c2ccc(O)c(O)c2)[C@H](O)[C@H](O)[C@H]1O,> 100,> 100,> 100,> 100,,> 100,> 100,> 100,> 100,> 100,> 100,> 100,> 100,69.3,> 100,50.5,> 100,> 100,> 100,
COc1ccc2c(c1OC)C(=O)OC2C1c2c(c([N+](=O)[O-])c3c(c2OC)OCO3)CCN1C (centres undefined),> 100,> 100,> 100,> 100,> 100,> 100,> 100,,,,> 100,> 100,> 100,27.8,,> 100,> 100,,,> 100
Cc1nc2ccccc2c(/C=C/c2ccc(Br)cc2)c1C(=O)/C=C/c1ccccc1,3.14,3.05,3.02,3.54,3.12,2.28,3.87,4.98,,,1.52,1.62,1.64,1.8,,0.601,2.15,1.29,,1.7
CCCCCCCCCCCCCP(=O)(O)NCC(N)=O,> 100,> 100,> 100,> 100,> 100,> 100,> 100,> 100,,,,,,,,,,,,
Fc1cccc(C2SCc3nc4ccccc4n32)c1F (centres undefined),> 100,> 100,> 100,> 100,> 100,> 100,> 100,> 100,> 100,,,,,,,,,,,
O=P1(Oc2ccccc2)C(c2ccccc2)C(c2ccccc2)=NN1c1ccccc1 (centres undefined),42.2,> 100,77.6,89.8,> 100,31.3,> 100,69.9,66,,,,,,,,,,,
CC(C)c1c2[nH]c3ccccc3c2c(C(C)C)c2[nH]c3ccccc3c12,> 100,> 100,> 100,> 100,> 100,> 100,> 100,> 100,> 100,,,,,,,,,,,
CCO/C=C1\N=C(c2ccccc2Br)OC1=O,> 100,> 100,> 100,> 100,> 100,,> 100,,> 100,,,,,,,,,,,
CN1CCN(CC(O)COc2c(Br)c(Br)c(Br)c3c2OC(C)(C)C3)CC1 (centres undefined),17.4,42.9,24.7,,,> 100,37.7,25.1,> 100,21.1,3.56,12.7,11.3,,5.06,5.16,15,5.36,2.06,
CN(C)CCC(/C=C/c1ccccc1)=N\Nc1ccc(Cl)cc1Cl,27.5,29.4,25.5,,41.2,28.8,27.2,20.9,28.7,,,,,,,,,,,
Cc1cc(N(CCC#N)CCC#N)ccc1/C=C1/N=C(c2ccccc2)N(N)C1=O,> 100,> 100,> 100,> 100,> 100,> 100,> 100,> 100,> 100,,,,,,,,,,,
CC1(C)C2CCC13CS(=O)(=O)N1O[C@]13C(=O)O2 (some centres undefined),> 100,> 100,> 100,> 100,> 100,> 100,> 100,> 100,> 100,,,,,,,,,,,
Cc1ccc(C2=Nc3ccccc3SC(c3cccc([N+](=O)[O-])c3)C2)cc1 (centres undefined),60,> 100,> 100,,> 100,20.8,86.8,> 100,23.8,> 100,,,,,,,,,,
